Data published in US20230320984A1, “TOFACITINIB-CONTAINING ANHYDROUS ELASTOMER-BASED GEL FORMULATIONS” (Vyne Therapeutics Inc., priority 2022, published 2023).
Counter-ions that a name gives are not always drawn. Like-named read-outs stand apart in the source and are kept apart here.

Columns and labels:
[1] = tested on: Hartley-derived albino guinea pigs; details: for test animals with erythema scores of 1 / test animals with erythema scores of 2: 0.1% w/v DNCB challenge
Protocol: A DNCB positive control group consisting of 10 DNCB test and 10 DNCB control guinea pigs are included in this study. The animals are treated as below with the DNCB test animals receiving 0.1% w/v DNCB in acetone and ethanol for induction and 0.1% and 0.05% w/v DNCB in acetone and ethanol for challenge.
The Test Article, placebo control, and the appropriate positive control articles are administered dermally for approximately 6 hours once on Days 0, 7, and 14 for inductions 1 to 3. The animals are reclipped on the day prior to dosing or induction to visualize the test sites clearly for grading. Following a 2-week rest period, a challenge (Day 28) is performed for Test Article group and placebo group on the same animal but on a different test site than the induction site. During the challenge phase the 20 Test Article group and 10 common challenge control guinea pigs are topically treated with Test Article and the 20 placebo control article and the same 10 common challenge control guinea pigs (separate test sites) are topically treated with placebo. Challenge responses for each of these groups are compared with those of the common challenge control animals. If challenge results are considered indefinite a rechallenge is conducted.
On the day prior to the first DNCB induction or dose administration (Day −1), the hair is removed from the left side of the test animals with a small animal clipper. Care is taken to avoid abrading the skin during the clipping procedures. On the day following clipping (Day 0), chambers containing the appropriate material are applied to the clipped area of the test animals and DNCB test animals. For the induction and challenge phases, a dose of 0.3 mL (or maximum volume for viscous materials) is placed on a 25 mm Hill Top Chamber® backed by adhesive tape (occlusive patch). The chambers are then applied to the clipped surface as quickly as possible.
The application site for induction is moved when irritation persists from a previous induction exposure (to ensure the test article is not dosed on compromised skin) but remains on the left side of the animal.
On the day prior to challenge dose administration, the test, placebo control article, challenge control, DNCB test, and DNCB challenge control animals are weighed, and the hair is removed from the right side of the animals.

[2] = tested on: Human skin from cosmetic reduction surgery; experiment: Skin penetration (IVPT), vertical diffusion cell (Method A); assay type: in vitro ADME
Protocol: The skin is dosed with approx. 6 mg of formulation to achieve a dose of ˜ 10 mg/cm2. Receptor solution is collected at pre-determined intervals over the course of 24 hours and analyzed using a liquid chromatography with tandem mass spectrometry (LC-MS/MS) analytical method.
Following 24 hours, the residual formulation is removed from the surface of the skin. The skin surface is tape-stripped up to five times to remove residual formulation and the top of the skin surface layers (Stratum Corneum). The epidermis is then heat-separated from the dermis. The active agent is extracted from the skin layers and the amount of active agent delivered to the epidermis and dermis is then determined by LC-MS/MS.

[3] = cited from earlier work
[4] = AD murine model: body weight
Protocol: (§1) Atopic Dermatitis is induced by once daily application for 38 days of 100 μl of 0.5% 2,4-dinitrochlorobenzene (DNCB) solution onto the shaved back skin of mice. Starting on day 32, test formulations are administered once daily onto the shaved back skin of mice in addition to DNCB. Several measurements are taken at different time points:
Daily from Day 32: Body weight, mortality, behaviour (scratching), general condition, AD index.

[5] = Solubility test of tofacitinib citrate in solvents and excipients (Method D); assay type: physicochemical
Protocol: Saturated solutions of tofacitinib citrate in various solvents are generated by agitating (stirring) an excess amount of solid crystalline tofacitinib citrate in the corresponding solvent at ambient conditions. […] An additional analysis is performed after 48 hours of agitation to confirm the determined saturated concentration.

[6] = Stability of tofacitinib citrate solution in 50 mM citrate buffer at different pH, 60° C.; assay type: physicochemical; parameters: unit not given here
Description: In one or more embodiments the pH, is about 4, about 4.1, about 4.2, about 4.3, about 4.4, about 4.5, about 4.6, about 4.7, about 4.8, about 4.9 or about 5.

[7] = tested on: Atopic Dermatitis induced by 2,4-dinitrochlorobenzene (DNCB); experiment: AD murine model: Atopic Dermatitis Index (ADI, mADI) (Method C); assay type: in vivo; details: DNCB induced mice
Description: In the mouse model the positive control is observed to cause a marked weight loss and thinning of the skin and this can be perceived to mask the scoring observed with the other parameters and omitting it may on one level provide a clearer representation of the treatment potential of the combination since no marked weight loss or thinning is noted other than with the positive control.
The presence of erythema/haemorrhage is scored based on the following scoring grid: • 0=no or no more erythema/haemorrhage on the skin, • 1=weak erythema/haemorrhage on the skin, • 2=moderate erythema/haemorrhage on the skin, • 3=severe erythema/haemorrhage on the skin.
The presence of edema/thickening is scored based on the following scoring grid: • 0=no or no more edema/thickening of the skin, • 1=weak edema/thickening of the skin, • 2=moderate edema/thickening of the skin, • 3=severe edema/thickening of the skin.
The presence of excoriation/erosion is scored based on the following scoring grid: • 0=no or no more excoriation/erosion of the skin, • 1=weak excoriation/erosion of the skin, • 2=moderate excoriation/erosion of the skin, • 3=severe excoriation/erosion of the skin.
The presence of dryness/peeling is scored based on the following scoring grid: • 0=no or no more dryness/peeling of the skin, • 1=weak dryness/peeling of the skin, • 2=moderate dryness/peeling of the skin, • 3=severe dryness/peeling of the skin.
Several measurements are taken at different time points: […]

[8] = human, in vivo
Protocol: (§2) Values below the limit of concentration are omitted from determination of geometric mean and geometric % CV.
(§3) Frozen samples are thawed at room temperature and homogenized by vortexing. 10 μL of ISTD2 and 104, of Methanol/Water (50/50, v/v) to each sample (exception blank samples for which 20.0 μL Methanol/Water (50/50, v/v) is added) is addeded to Eppendorf tubes each containing 100 μL sample. 300 μL of acetonitrile is added to each sample and vortexed for additional 10 sec. Next samples are centrifuged for 10 min at 14000 rpm at 5° C. 310 μL of the supernatant is transferred into a 96-DWP. Samples are evaporated at approximately 40° C. (turbovap 96) under N2. 100 μL mobile phase A (see table below) is added to each sample and the 96-DWP is sealed with heatsealing foil and shaken for 5 min on a Vortex-shaker and then centrifuged for 5 min with settings 4500 rpm at 5° C. The 96-DWP is transferred to the autosampler and then the samples are diluted by 100-fold, first by adding 10 μl of sample in 904, of blank plasma/water (dilution 1/10) and then by pipetting 104, of sample diluted 10 fold in 904, of blank plasma (dilution 1/100). The diluted samples are vortexed for 5 sec and processed.
(§4) After, the analyte is separated on a Luna Omega Polar C18 column (50×2.1 mm, 3 μm) with gradient elution of a mobile phase composed of water/acetonitrile/ammonium formate/formic acid it is analyzed using electrospray ionization (ESI) tandem mass spectrometry (MS/MS) in the multiple reaction monitoring mode (MRM).

[9] = Chemical stability of formulations (Method H); assay type: physicochemical; details: gel with Tofacitinib Citrate 1.0% and Fingolimod HCl 0.01% (Table 38)
Protocol: Where another active agent such as fingolimod is present in the formulations the samples are analyzed for that active agent and its degradation products by HPLC. […] The gradient elution is employed.

clinical = details: human, in vivo
Protocol: as §2, §3, §4

[10] = tested on: Atopic Dermatitis induced by DNCB; parameters: species or system mice; details: mouse, in vivo
Protocol: as §1
Day 39: Histological analysis of skin samples, microscopic scoring of AD, blood assays, assay for pro-inflammatory cytokines IL-1β, IL-6, IL-18, TNF-α, IgE, and histamine assays.

[11] = Ex 43 Table 43 (fingolimod and tofacitinib)
[12] = Ex 42 Table 42 (fingolimod alone)

## O=[N+]([O-])c1ccc(Cl)c([N+](=O)[O-])c1 [DNCB, 2,4-dinitrochlorobenzene]
[1]; 0.05% w/v DNCB challenge, 24-hour scoring interval
  test animals with dermal scores of 1: 4/10
[1]; 24-hour scoring interval
  test animals with erythema scores of 1: 5/10
  test animals with erythema scores of 2: 5/10
[1]; 48-hour scoring interval
  test animals with erythema scores of 1: 6/10
  test animals with erythema scores of 2: 4/10
[1]; challenge with 0.05% w/v DNCB in acetone and ethanol, control animals 0.25
  Group mean dermal score at challenge: 0.6
[1]; challenge with 0.1% w/v DNCB in acetone and ethanol, control animals 0.375
  Group mean dermal score at challenge: 1.45

## CCCCCCCCc1ccc(CCC(N)(CO)CO)cc1 [Fingolimod HCl 0.011%]
[2]; [11]
  Dermis concentration, ng (based on the Mean): 14.82 ng
  Epidermis concentration, ng (based on the Mean): 16.21 ng

## CCCCCCCCc1ccc(CCC(N)(CO)CO)cc1 [Fingolimod HCl 0.022%]
[2]; [12]
  Dermis concentration, ng (based on the Mean): 49.16 ng
  Epidermis concentration, ng (based on the Mean): 37.5 ng

## CCCCCCCCc1ccc(CCC(N)(CO)CO)cc1 [Fingolimod hydrochloride]
[3]; ethanol
  solubility: soluble
[3]; range from pH 1.2-4.5
  solubility: freely soluble
[3]; water and methanol
  solubility: freely soluble
[4]; fingolimod AD study, 0.1% w/w and 1% w/w
  tolerability (body weight): not well tolerated

## C[C@@H]1CCN(C(=O)CC#N)C[C@@H]1N(C)c1ncnc2[nH]ccc12 [Tofacitinib citrate]
[5]; in 0.02% HCl
  Solubility of TOF Citrate: 4.06 mg/g
[5]; in 0.05% NaOH
  Solubility of TOF Citrate: ND (degraded)
[5]; in Benzyl Alcohol
  Solubility of TOF Citrate: 0.81 mg/g
[5]; in DMSO
  Solubility of TOF Citrate: >150 mg/g
[5]; in Diisopropyl adipate
  Solubility of TOF Citrate: 0.02 mg/g
[5]; in Dimethyl isosorbate
  Solubility of TOF Citrate: 1.27 mg/g
[5]; in Ethanol
  Solubility of TOF Citrate: 0.61 mg/g
[5]; in Glycerin
  Solubility of TOF Citrate: 0.97 mg/g
[5]; in Hexylene Glycol
  Solubility of TOF Citrate: 0.25 mg/g
[5]; in Isopropyl Alcohol
  Solubility of TOF Citrate: 0.24 mg/g
[5]; in Isopropyl myristate
  Solubility of TOF Citrate: <0.02 mg/g
[5]; in MCT oil (Caprylic/capric triglycerides)
  Solubility of TOF Citrate: <0.01 mg/g
[5]; in Oleyl alcohol
  Solubility of TOF Citrate: 0.09 mg/g
[5]; in PPG-11 Stearyl ether
  Solubility of TOF Citrate: 0.02 mg/g
[5]; in Polyethylene Glycol 200
  Solubility of TOF Citrate: 5.16 mg/g
[5]; in Polyethylene Glycol 400
  Solubility of TOF Citrate: 6.96 mg/g
[5]; in Propylene Glycol
  Solubility of TOF Citrate: 1.70 mg/g
[5]; in Transcutol
  Solubility of TOF Citrate: 2.01 mg/g
[5]; in Water
  Solubility of TOF Citrate: 2.77 mg/g
[6]; pH 4.5, 2 w
  Imp B: 0.10
[6]; pH 5, 1 w
  RRT 1.29: 0.09
  RRT 1.42: 0.14
[6]; pH 5, 2 w
  RRT 1.29: 0.08

## CC1(C)O[C@@H]2C[C@H]3[C@@H]4CCC5=CC(=O)C=C[C@]5(C)[C@@]4(F)[C@@H](O)C[C@]3(C)[C@]2(C(=O)CO)O1 [Triamcinolone acetonide]
[7]; Example 41, D39
  ADI breakdown: Dryness-Peeling D39: 0.88
  ADI breakdown: Edema-Thickening D39: 0.00
  ADI breakdown: Erythema-Haemorrhage D39: 0.00
  ADI breakdown: Excoriation-Erosion D39: 0.00
[4]; DNCB induced mice, Example 41, D32 (treatment start), mean
  Body weight: Weight D32: 18.31
[4]; DNCB induced mice, Example 41, D39, mean
  Body weight: Weight D39: 15.66
[4]; DNCB induced mice, Example 41, (+) weight gain, (−) weight loss
  Mean Body Weight Change d39 − d32: −2.65

## C[C@@H]1CCN(C(=O)CC#N)C[C@@H]1N(C)c1ncnc2[nH]ccc12 [tofacitinib]
[8]
  AUC(0-12) Median: 1.056 ng·h/mL
  Tmax Geomean: 3.00 h
  Tmax Median: 3.00 h
[9]; 2 months at 40° C.
  Assay of Tofacitinib, % LC: 99.2 % LC
[9]; 2 months at 50° C.
  Assay of Tofacitinib, % LC: 98.6 % LC
[9]; 3 weeks at 5° C.
  Assay of Tofacitinib, % LC: 99.3 % LC
[9]; 3 weeks at 50° C.
  Assay of Tofacitinib, % LC: 99.1 % LC
clinical; AUC(0-12) Median
  AUC(0-t): 1.97 ng·h/mL
clinical; AUC(0-24) Geomean
  AUC(0-t): 3.21 ng·h/mL
clinical; AUC(0-24) Mean
  AUC(0-t): 4.03 ng·h/mL
clinical; AUC(0-24) Median
  AUC(0-t): 3.14 ng·h/mL
clinical; Tmax Geomean
  Tmax: 5.05 h
clinical; Tmax Median
  Tmax: 6 h

## CC1(C)O[C@@H]2C[C@H]3[C@@H]4CCC5=CC(=O)C=C[C@]5(C)[C@@]4(F)[C@@H](O)C[C@]3(C)[C@]2(C(=O)CO)O1 [triamcinolone acetonide]
[7]; combination study (Example 41), D 39
  AD Index, Mean ADI values D 39: 0.88

## Triamcinolone
[10]
  skin thinner than vehicle-treated normal skin: about 0.8 fold
[4]; mouse, in vivo
  Body weight D39, Mean: 17.7 g
  Body weight D39 mean: 17.1 g
  Mean Body Weight Change d39 − d32: −2.80
